Measurements taken from patent US20110105500A1, “PYRAZINE SUBSTITUTED PURINES” (S*BIO Pte Ltd., priority 2008, published 2011).

Columns and labels:
Full-length mTOR kinase = molecular target: T1, Full-length mTOR kinase (Homo sapiens, UniProt P42345); test: mTOR Assay (phosphorylation of 4eBP1, [γ33P]-ATP filter plate); type: biochemical; conditions: 10 μM ATP, 1 hour at room temperature
T1 construct: Full-length mTOR kinase and His-tagged 4eBP1 were produced in-house; made in house
Procedure: Full-length mTOR kinase and His-tagged 4eBP1 were produced in-house. [γ^33P]-ATP was purchased from Amersham (GE Healthcare). All chemicals, unless otherwise stated, were from Sigma-Aldrich.
Phosphorylation assays were initially performed in a final volume of 20 μL in 384-well polypropylene plate (Greiner). Compounds were typically tested over the range from 100 μM to 0.006 μM, in 8 step dilutions, in duplicate. 10 μL/well of 2× Enzyme-Substrate solution (1.5 μg/mL mTOR, 40 μg/mL 4eBP1 in 1× assay buffer: 10 mM Hepes pH 7.5, 50 mM NaCl and 10 mM MnCl2) were first added to the sample plate containing 1 μL/well of test compound in neat DMSO. The reaction was initiated by adding 10 μL/well of 20 μM ATP solution (final assay concentration 10 μM ATP and 0.4 μCi/well of [γ^33P]-ATP). After 1 hour incubation at room temperature, the reaction was terminated with 40 μL/well of 20 mM EDTA/1 mM ATP solution.
50 μL/well of the stopped reaction mix was then transferred to 384-well MultiScreenHTS-PH filter plate (Millipore) pre-added with 50 μL/well of 1% phosphoric acid. The plate was washed 4 times with 120 μL/well of 0.5% phosphoric acid via vacuum filtration. Finally, 10 μL/well of Optiphase™ SuperMix liquid scintillation cocktail (Perkin Elmer) was added. After minimum 1 hour of incubation, counting was performed in a Wallac MicroBeta TriLux scintillation counter using coincidence counting mode with crosstalk correction. IC50 is defined as the concentration of compound required for 50% inhibition of kinase enzyme activity.

[1] = molecular target: T2, Recombinant PI3K p110α/p85 (Homo sapiens, UniProt P42336); test: PI3K Assay ([γ33P]ATP, PtdIns/PtdSer coated plates); type: biochemical; conditions: p110α/p85, 2 μM ATP, 1 hour at RT; read-out: IC50 (PI3Kα)
T2 construct: made in house
Procedure: Recombinant PI3K p110α/p85 was prepared in-house. Phosphatidylinositol (PtdIns), phosphotidylserine (PtdSer) and all other unspecified chemicals were purchased from Sigma-Aldrich. [γ33P]ATP and Optiphase scintillant were obtained from Perkin Elmer.
Assays were performed in a final assay volume of 25 μL in 384-well Maxisorp plates (Nunc). […] Maxisorp plates were coated with 20 μL/well of a 1:1 mixture of PtdIns and PtdSer [0.1 mg/mL each dissolved in chloroform:ethanol (3:7)] and left overnight in a fume hood at room temperature to dry.
The enzyme reaction was created by pipetting 5 μL/well of compound (in 2.5% DMSO), 10 μL/well of enzyme (0.5 μg/mL p110α+1 μg/mL p85), and 10 μL/well of 5 μM ATP with 5 μCi/mL [γ^33P]ATP in assay buffer (final concentrations: 0.2 μg/mL p110α, 2 μM ATP, 0.05 μCi/well [γ^33P]ATP in 1× assay buffer: 100 mM Tris-HCl pH 7.0, 200 mM NaCl, 8 mM MgCl2). The reaction was incubated for 1 hour at RT and terminated with 30 μL/well of 50 mM EDTA solution. The plate was then washed twice with TBS, dried, and added with 30 μL/well of scintillant before it was counted in a MicroBeta Trilux.

[2] = tested on: human breast cancer cell lines; conditions: cited from earlier work

T2 sequence (P42336 whole entry): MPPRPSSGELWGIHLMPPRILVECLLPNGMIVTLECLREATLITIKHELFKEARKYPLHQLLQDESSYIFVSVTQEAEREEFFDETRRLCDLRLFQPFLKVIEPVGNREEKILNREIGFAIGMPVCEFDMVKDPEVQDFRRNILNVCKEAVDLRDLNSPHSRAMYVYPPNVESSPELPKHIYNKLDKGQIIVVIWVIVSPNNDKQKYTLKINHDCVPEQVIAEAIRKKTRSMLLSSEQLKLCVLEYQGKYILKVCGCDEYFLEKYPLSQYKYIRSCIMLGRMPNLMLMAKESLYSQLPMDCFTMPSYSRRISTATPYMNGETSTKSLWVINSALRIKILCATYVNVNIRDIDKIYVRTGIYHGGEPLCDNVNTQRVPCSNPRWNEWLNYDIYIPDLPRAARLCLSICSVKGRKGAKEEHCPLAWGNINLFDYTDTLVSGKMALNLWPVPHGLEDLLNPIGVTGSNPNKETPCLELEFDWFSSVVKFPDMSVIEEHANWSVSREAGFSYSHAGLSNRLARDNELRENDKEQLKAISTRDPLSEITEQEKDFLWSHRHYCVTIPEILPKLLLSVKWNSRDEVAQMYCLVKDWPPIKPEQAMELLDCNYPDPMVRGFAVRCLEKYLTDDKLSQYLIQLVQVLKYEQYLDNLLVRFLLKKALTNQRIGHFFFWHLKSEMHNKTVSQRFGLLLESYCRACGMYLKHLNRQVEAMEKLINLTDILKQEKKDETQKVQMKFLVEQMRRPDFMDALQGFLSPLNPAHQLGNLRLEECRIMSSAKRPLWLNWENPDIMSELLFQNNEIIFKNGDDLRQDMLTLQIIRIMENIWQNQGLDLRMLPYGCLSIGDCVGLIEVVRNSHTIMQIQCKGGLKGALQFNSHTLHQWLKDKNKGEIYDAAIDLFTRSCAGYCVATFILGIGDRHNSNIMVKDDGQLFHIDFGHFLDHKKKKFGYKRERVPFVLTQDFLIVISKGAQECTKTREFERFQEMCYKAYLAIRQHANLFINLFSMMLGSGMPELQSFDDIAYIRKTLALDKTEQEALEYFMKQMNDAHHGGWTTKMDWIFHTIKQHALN
T2 sequence (P27986 whole entry partner): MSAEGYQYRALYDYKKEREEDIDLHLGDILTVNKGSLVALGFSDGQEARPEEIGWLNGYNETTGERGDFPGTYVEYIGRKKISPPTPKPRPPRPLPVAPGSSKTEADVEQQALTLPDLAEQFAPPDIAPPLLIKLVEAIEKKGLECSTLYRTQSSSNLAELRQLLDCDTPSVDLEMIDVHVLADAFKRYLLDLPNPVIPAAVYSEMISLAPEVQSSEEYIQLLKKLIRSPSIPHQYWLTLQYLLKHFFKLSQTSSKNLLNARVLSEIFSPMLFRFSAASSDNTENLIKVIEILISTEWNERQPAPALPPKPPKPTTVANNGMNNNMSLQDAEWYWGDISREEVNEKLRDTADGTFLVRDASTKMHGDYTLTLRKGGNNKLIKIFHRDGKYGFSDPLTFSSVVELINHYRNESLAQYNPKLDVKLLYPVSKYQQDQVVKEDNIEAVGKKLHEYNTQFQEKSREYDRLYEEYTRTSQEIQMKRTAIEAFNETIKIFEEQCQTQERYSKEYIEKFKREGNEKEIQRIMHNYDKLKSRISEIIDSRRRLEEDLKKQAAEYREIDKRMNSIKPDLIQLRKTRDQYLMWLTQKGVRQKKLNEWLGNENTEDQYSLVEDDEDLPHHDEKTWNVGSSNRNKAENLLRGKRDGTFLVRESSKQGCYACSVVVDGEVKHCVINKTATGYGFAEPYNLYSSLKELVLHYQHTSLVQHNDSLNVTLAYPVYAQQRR

SMILES	IC50 (Full-length mTOR kinase) [nM]	IC50 [1] [nM]	IC50 (sensitive lines) ([2]; six of eight human breast cancer cell lines)	IC50 ([2]; two resistant lines of eight human breast cancer cell lines) [nM]
Nc1cnc(-c2nc(N3CCOCC3)nc3c2ncn3C2CCC2)cn1 [Compound 24]	< 1000	< 1000		
CCC(CC)n1cnc2c(-c3cnc(N)cn3)nc(N3CCOCC3)nc21 [Compound 4]	< 1000	< 1000		
Nc1cnc(-c2nc(N3CCOCC3)nc3c2ncn3Cc2ccccc2)cn1 [Compound 6]	1000 to 5000	< 1000		
CCC(C#N)n1cnc2c(-c3cnc(N)cn3)nc(N3CCOCC3)nc21 (stereo not shown) [Compound 3]	< 1000	< 1000		
Nc1cnc(-c2nc(N3CCOCC3)nc3c2ncn3C2CCc3ccccc3C2)cn1 (stereo not shown) [Compound 13]	< 1000	< 1000		
CC1CCCCC1n1cnc2c(-c3cnc(N)cn3)nc(N3CCOCC3)nc21 (stereo not shown) [Compound 25]	< 1000	< 1000		
Cc1cccc(-n2cnc3c(-c4cnc(N)cn4)nc(N4CCOCC4)nc32)c1 [Compound 11, 5-(2-Morpholin-4-yl-9-m-tolyl-9H-purin-6-yl)-pyrazin-2-ylamine]	< 1000	< 1000		
Nc1cnc(-c2nc(N3CCOCC3)nc3c2ncn3-c2ccc3c(c2)OCO3)cn1 [Compound 14]	< 1000	< 1000		
CC(C1CC1)n1cnc2c(-c3cnc(N)cn3)nc(N3CCOCC3)nc21 (stereo not shown) [Compound 9]	< 1000	< 1000		
Nc1cnc(-c2nc(N3CCOCC3)nc3c2ncn3C2CCc3ccccc32)cn1 (stereo not shown) [Compound 23]	< 1000	< 1000		
Nc1cnc(-c2nc(N3CCOCC3)nc3c2ncn3C2CCN(c3ccccc3)CC2)cn1 [Compound 16]	< 1000	< 1000		
Nc1cnc(-c2nc(N3CCOCC3)nc3[nH]cnc23)cn1 [Compound 17]	< 1000	< 1000		
CCC(C)n1c(Br)nc2c(-c3cnc(N)cn3)nc(N3CCOCC3)nc21 (stereo not shown) [Compound 15, 5-(8-Bromo-9-sec-butyl-2-morpholin-4-yl-9H-purin-6-yl)-pyrazin-2-ylamine]	< 1000	< 1000		
Nc1cnc(-c2nc(N3CCOCC3)nc3c2ncn3Cc2c(F)cccc2F)cn1 [Compound 7, 5-[9-(2,6-Difluoro-benzyl)-2-morpholin-4-yl-9H-purin-6-yl]-pyrazin-2-ylamine]	< 1000	< 1000		
Nc1cnc(-c2nc(N3CCOCC3)nc3c2ncn3CC2CC2)cn1 [Compound 8]	< 1000	< 1000		
Nc1cnc(-c2nc(N3CCOCC3)nc3c2ncn3C2Cc3ccccc3C2)cn1 [Compound 21]	< 1000	< 1000		
CC(C)(C)Cn1cnc2c(-c3cnc(N)cn3)nc(N3CCOCC3)nc21 [Compound 22]	< 1000	< 1000		
Nc1cnc(-c2nc(N3CCOCC3)nc3c2ncn3C2CCOC2)cn1 (stereo not shown) [Compound 12]	< 1000	< 1000		
Nc1cnc(-c2nc(N3CCOCC3)nc3c2ncn3C2CCN(c3ccccc3)C2)cn1 (stereo not shown) [Compound 18]	< 1000	< 1000		
Nc1cnc(-c2nc(N3CCOCC3)nc3c2ncn3C2CCCC2)cn1 [Compound 5]	< 1000	< 1000		
COCC(C)n1cnc2c(-c3cnc(N)cn3)nc(N3CCOCC3)nc21 (stereo not shown) [Compound 10]	< 1000	< 1000		
CC(C)C(C)n1cnc2c(-c3cnc(N)cn3)nc(N3CCOCC3)nc21 (stereo not shown) [Compound 2]	< 1000	< 1000		
Nc1cnc(-c2nc(N3CCOCC3)nc3c2ncn3-c2ccccc2)cn1 [Compound 19]	< 1000	< 1000		
CO[C@H]1C[C@@H]2CC[C@@H](C)[C@@](O)(O2)C(=O)C(=O)N2CCCC[C@H]2C(=O)O[C@H]([C@H](C)C[C@@H]2CC[C@@H](OC(=O)C(C)(CO)CO)[C@H](OC)C2)CC(=O)[C@H](C)/C=C(\C)[C@@H](O)[C@@H](OC)C(=O)[C@H](C)C[C@H](C)/C=C/C=C/C=C/1C [CCI-779]			low nanomolar range	> 1000
Nc1cnc(-c2nc(N3CCOCC3)nc3c2nc(Br)n3C2CCOC2)cn1 (stereo not shown) [Compound 20]	< 1000	< 1000		
CCC(C)n1cnc2c(-c3cnc(N)cn3)nc(N3CCOCC3)nc21 (stereo not shown) [Compound 1, 5-(9-sec-Butyl-2-morpholin-4-yl-9H-purin-6-yl)-pyrazin-2-ylamine]	< 1000	< 1000		
